Test results from the supplement of paper PMC10307832.

Assays:
Assay in all cases: relative viability (nuclei count vs DMSO), 5 days (fraction); higher = more cells survive
Salubrinal + Pemetrexed = compound: O=C(/C=C/c1ccccc1)NC(NC(=S)Nc1cccc2cccnc12)C(Cl)(Cl)Cl [Salubrinal] + Nc1nc2[nH]cc(CCc3ccc(C(=O)N[C@@H](CCC(=O)O)C(=O)O)cc3)c2c(=O)[nH]1 [Pemetrexed] (partner 0.2 µM)
Procedure, shortened: (§1)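 Lung cancer cell lines were pin-tool dosed in 1536-well plates on the day after seeding, with either a lone drug or a fixed anchor-drug dose plus five library-drug doses (not always all listed) in √10 steps. Nuclei were counted on 4× images after 5 days. Relative viability is the ratio of treated-well to vehicle-well nuclei counts, with each value a median of duplicate plates.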

Salubrinal + Crizotinib = compound: O=C(/C=C/c1ccccc1)NC(NC(=S)Nc1cccc2cccnc12)C(Cl)(Cl)Cl [Salubrinal] + C[C@@H](Oc1cc(-c2cnn(C3CCNCC3)c2)cnc1N)c1c(Cl)ccc(F)c1Cl [Crizotinib] (partner 1 µM)
Procedure, shortened: as §1

[1] = compound: Cc1ccc2nc(NCCN)c3ncc(C)n3c2c1 + Cc1cc(Nc2cc(N3CCN(C)CC3)nc(Sc3ccc(NC(=O)C4CC4)cc3)n2)n[nH]1 [Tozasertib] (partner 0.1 µM)
Procedure, shortened: as §1

Salubrinal + Navitoclax = compound: O=C(/C=C/c1ccccc1)NC(NC(=S)Nc1cccc2cccnc12)C(Cl)(Cl)Cl [Salubrinal] + CC1(C)CCC(c2ccc(Cl)cc2)=C(CN2CCN(c3ccc(C(=O)NS(=O)(=O)c4ccc(N[C@H](CCN5CCOCC5)CSc5ccccc5)c(S(=O)(=O)C(F)(F)F)c4)cc3)CC2)C1 [Navitoclax] (partner 0.5 µM)
Procedure, shortened: as §1

| Cell Line | relative viability (Salubrinal + Pemetrexed; first compound 0.08 µM) | relative viability (Salubrinal + Pemetrexed; first compound 0.253 µM) | relative viability (Salubrinal + Pemetrexed; first compound 0.8 µM) | relative viability (Salubrinal + Pemetrexed; first compound 2.53 µM) | relative viability (Salubrinal + Pemetrexed; first compound 8 µM) | relative viability (Salubrinal + Crizotinib; first compound 0.08 µM) | relative viability (Salubrinal + Crizotinib; first compound 0.253 µM) | relative viability (Salubrinal + Crizotinib; first compound 0.8 µM) | relative viability (Salubrinal + Crizotinib; first compound 2.53 µM) | relative viability (Salubrinal + Crizotinib; first compound 8 µM) | relative viability ([1]; first compound 0.04 µM) | relative viability ([1]; first compound 0.1265 µM) | relative viability ([1]; first compound 0.4 µM) | relative viability ([1]; first compound 1.265 µM) | relative viability ([1]; first compound 4 µM) | relative viability (Salubrinal + Navitoclax; first compound 0.08 µM) | relative viability (Salubrinal + Navitoclax; first compound 0.253 µM) | relative viability (Salubrinal + Navitoclax; first compound 0.8 µM) | relative viability (Salubrinal + Navitoclax; first compound 2.53 µM) | relative viability (Salubrinal + Navitoclax; first compound 8 µM) |
| --- | --- | --- | --- | --- | --- | --- | --- | --- | --- | --- | --- | --- | --- | --- | --- | --- | --- | --- | --- | --- |
| PC-3 [JPC-3] | 0.879 | 0.919 | 1.49 | 1.02 | 1.04 | 1.08 | 0.679 | 1.11 | 0.976 | 0.997 | 0.899 | 0.821 | 0.914 | 0.848 | 0.833 | 0.859 | 0.768 | 0.846 | 0.766 | 0.766 |
| BEN | 0.744 | 0.753 | 0.971 | 0.846 | 0.791 | 1.02 | 0.734 | 0.996 | 0.858 | 0.852 | 0.501 | 0.436 | 0.498 | 0.469 | 0.559 | 0.0699 | 0.0611 | 0.0613 | 0.0706 | 0.0675 |
| NCI-H1666 | 0.837 | 0.804 | 0.989 | 0.864 | 0.845 | 1.17 | 0.852 | 1.14 | 0.784 | 0.94 | 0.665 | 0.676 | 0.677 | 0.502 | 0.544 | 0.979 | 0.992 | 1.24 | 0.93 | 0.878 |
| LC-2-ad | 0.242 | 0.276 | 0.268 | 0.272 | 0.264 | 0.447 | 0.385 | 0.537 | 0.471 | 0.459 | 0.445 | 0.491 | 0.533 | 0.387 | 0.42 | 0.5 | 0.35 | 0.666 | 0.54 | 0.413 |
| SK-LU-1 | 0.994 | 0.721 | 1.02 | 0.886 | 0.94 | 1.23 | 0.717 | 1.1 | 0.938 | 0.841 | 0.378 | 0.373 | 0.392 | 0.339 | 0.308 | 0.917 | 0.745 | 1.02 | 0.859 | 0.864 |
| ChaGo-K-1 | 0.266 | 0.274 | 0.241 | 0.253 | 0.375 | 1.25 | 0.927 | 1.44 | 1.1 | 0.929 | 0.258 | 0.253 | 0.253 | 0.236 | 0.238 | 1.07 | 0.849 | 1.58 | 1.37 | 1.12 |
| COR-L 105 | 1.25 | 0.831 | 1.24 | 1.04 | 1.09 | 0.962 | 0.624 | 0.76 | 0.772 | 0.689 | 0.374 | 0.355 | 0.294 | 0.353 | 0.302 | 0.715 | 0.718 | 0.76 | 0.765 | 0.723 |
| NCI-H1975 | 0.321 | 0.283 | 0.337 | 0.318 | 0.28 | 1.07 | 0.722 | 1.06 | 0.992 | 0.816 | 0.818 | 0.866 | 0.824 | 0.639 | 0.56 | 1.27 | 0.796 | 1.21 | 1.15 | 1.1 |
| NCI-H1993 | 0.666 | 0.596 | 0.524 |  | 0.573 | 0.795 | 0.856 | 0.794 | 0.909 | 0.941 | 0.602 | 0.593 | 0.543 | 0.566 | 0.581 | 1.02 | 0.902 | 0.976 | 0.799 | 0.733 |
| RERF-LC-KJ | 0.458 | 0.496 | 0.501 | 0.446 | 0.415 | 0.81 | 0.718 | 0.803 | 0.806 | 0.887 | 0.512 | 0.506 | 0.561 | 0.456 | 0.32 | 0.858 | 1.24 | 0.816 | 0.945 | 0.83 |
| NCI-H23 | 0.674 | 0.633 | 0.919 | 0.653 | 0.421 | 0.559 | 0.391 | 0.621 | 0.461 | 0.354 | 0.707 | 0.403 | 0.451 | 0.301 | 0.422 | 1.01 | 0.722 | 0.91 | 0.759 | 1.04 |
| HCC-366 | 0.194 |  | 0.165 | 0.153 | 0.161 | 0.798 | 0.437 | 0.777 | 0.393 | 0.55 | 0.119 | 0.135 | 0.215 | 0.116 | 0.221 | 1.27 | 0.871 | 0.985 | 0.975 | 0.971 |
| EMC-BAC-2 | 0.42 | 0.441 | 0.459 | 0.473 | 0.478 | 0.749 | 0.676 | 0.811 | 0.721 | 0.76 | 0.297 | 0.282 | 0.313 | 0.265 | 0.288 | 1.53 | 1.01 | 1.2 | 1.16 | 1.15 |
| NCI-H2405 | 1.01 | 1.16 | 1.17 | 1.05 | 1.07 | 0.858 | 0.866 | 0.922 | 0.924 | 0.958 | 0.731 | 0.723 | 0.708 | 0.639 | 0.68 | 0.942 | 0.957 | 0.793 | 0.82 | 0.905 |
| NCI-H1944 | 0.607 | 0.669 | 0.797 | 0.752 | 0.789 | 1.22 | 1.12 | 1.29 | 1.08 | 1.21 | 0.256 | 0.248 | 0.246 | 0.241 | 0.253 | 1.07 | 1.08 | 1.12 | 1.04 | 1.05 |
| EPLC-272H | 0.255 |  | 0.363 | 0.342 | 0.294 | 0.976 | 0.839 | 0.887 | 1.03 | 0.949 | 0.249 | 0.33 | 0.348 | 0.237 | 0.251 | 1.23 | 1.02 | 1.4 | 1.19 | 1.04 |
